Assays:
[1] = molecular target: T1, HCV NS3/4A protease complex, J4L6S strain (Hepatitis C virus genotype 1b, UniProt O92972, C1454S/C1711G); assay: FRET peptide assay to monitor HCV NS3/4A proteolytic activity (J4L6S strain); type: biochemical; conditions: J4L6S strain (1b genotype)
T1 construct: recombinant HCV NS3/4A protease complex (amino acids 1027 to 1711) for these strains; His-tag (inferred from pET21b vector and Ni-NTA purification); made in house; host or cells: Escherichia coli BL21 (DE3), pET21b
T1 sequence (O92972 1027-1711 C1454S/C1711G, one chain of several): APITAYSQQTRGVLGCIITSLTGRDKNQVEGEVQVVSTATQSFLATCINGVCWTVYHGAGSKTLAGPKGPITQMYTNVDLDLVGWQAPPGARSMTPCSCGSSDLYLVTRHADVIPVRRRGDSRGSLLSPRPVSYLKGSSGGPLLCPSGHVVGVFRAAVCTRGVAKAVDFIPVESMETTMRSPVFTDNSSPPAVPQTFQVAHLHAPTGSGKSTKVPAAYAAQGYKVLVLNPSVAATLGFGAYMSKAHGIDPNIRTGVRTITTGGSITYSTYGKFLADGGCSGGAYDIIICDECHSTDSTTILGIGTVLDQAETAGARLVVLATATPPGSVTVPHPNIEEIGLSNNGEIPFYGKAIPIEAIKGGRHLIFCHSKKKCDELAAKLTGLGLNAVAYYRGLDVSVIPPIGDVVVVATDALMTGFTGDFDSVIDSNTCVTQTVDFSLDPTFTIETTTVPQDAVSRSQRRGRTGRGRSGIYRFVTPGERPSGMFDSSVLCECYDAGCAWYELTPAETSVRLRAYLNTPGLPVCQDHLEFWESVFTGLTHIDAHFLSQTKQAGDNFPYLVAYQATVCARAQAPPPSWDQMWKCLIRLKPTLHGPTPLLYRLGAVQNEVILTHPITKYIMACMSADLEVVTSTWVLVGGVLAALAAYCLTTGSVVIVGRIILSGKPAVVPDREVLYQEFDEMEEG
Source text: HCV NS3 protease complexes, derived from the BMS strain, H77 strain or J4L6S strain, were generated, as described below. These purified recombinant proteins were generated for use in a homogeneous assay (see below) to provide an indication of how effective compounds of the present disclosure would be in inhibiting HCV NS3 proteolytic activity.
The H77 and J4L6S strains were used for production of recombinant NS3/4A protease complexes. DNA encoding the recombinant HCV NS3/4A protease complex (amino acids 1027 to 1711) for these strains were manipulated as described by P. Gallinari et al. (see Gallinari P, Paolini C, Brennan D, Nardi C, Steinkuhler C, De Francesco R. Biochemistry. 38(17):5620-32, (1999)). Briefly, a three-lysine solubilizing tail was added at the 3′-end of the NS4A coding region. The cysteine in the P1 position of the NS4A-NS4B cleavage site (amino acid 1711) was changed to a glycine to avoid the proteolytic cleavage of the lysine tag. Furthermore, a cysteine to serine mutation was introduced by PCR at amino acid position 1454 to prevent the autolytic cleavage in the NS3 helicase domain. […]

[2] = molecular target: T2, porcine pancreatic elastase (PPE) (Sus scrofa, UniProt P00772); assay: Specificity assay, pancreatic elastase; type: biochemical
T2 construct: purchased Sigma or EMDbiosciences
T2 sequence (P00772 27-266): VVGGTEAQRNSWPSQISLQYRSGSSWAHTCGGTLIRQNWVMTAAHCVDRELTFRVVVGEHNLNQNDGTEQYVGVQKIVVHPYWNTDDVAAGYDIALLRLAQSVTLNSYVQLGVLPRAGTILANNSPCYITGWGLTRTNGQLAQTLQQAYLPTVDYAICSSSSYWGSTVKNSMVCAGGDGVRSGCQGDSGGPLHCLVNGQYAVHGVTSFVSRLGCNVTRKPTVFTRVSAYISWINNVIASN
Experimental: The specificities of compounds of the present disclosure were determined against a variety of serine proteases: human neutrophil elastase (HNE), porcine pancreatic elastase (PPE) and human pancreatic chymotrypsin and one cysteine protease: human liver cathepsin B. In all cases, a 96-well plate format protocol using colorimetric p-nitroaniline (pNA) substrate or fluorometric Amino-Methyl-Coumarin (AMC) substrate, specific for each enzyme was used as described previously (PCT Patent Application No. WO 00/09543) with some modifications. All enzymes were purchased from Sigma or EMDbiosciences while the substrates were from Bachem.
Each pNA assay included a 2 h enzyme-inhibitor pre-incubation at room temperature followed by addition of substrate and hydrolysis to ˜15% conversion as measured on a Spectramax Pro microplate reader. The cathepsin B assay was initiated by adding substrate to a 10 min enzyme-inhibitor pre-incubation at room temperature, and the assay plate measured immediately using the Cytofluor Series 4000. Compound concentrations varied from 100 to 0.4 μM depending on their potency.
50 mM Tris(hydroxymethyl)aminomethane hydrochloride (Tris-HCl) pH 8, 0.5 M Sodium Sulfate (Na2SO4), 50 mM NaCl, 0.1 mM EDTA, 3% DMSO, 0.01% Tween-20 with: […]
The percentage of inhibition was calculated using the formula: [1−((UVinh−UVblank)/(UVctl−UVblank))]×100 […]

## CC(C)(C)OC(=O)N[C@H]1CN(C2CC2)CCC/C=C\C2C[C@@]2(C(=O)NS(=O)(=O)C2CC2)NC(=O)[C@@H]2C[C@@H](Oc3ccccn3)CN2C1=O (some centres unmarked) [Compound 1]
[1]
  IC50: 12 nM
[2]
  IC50: > 100000 nM
